Data: US9260417B2, “Therapeutic methods and compositions involving allosteric kinase inhibition” (AMITECH THERAPEUTIC SOLUTIONS, INC., priority 2010, dated 2016)

Assays:
[1] = biological target: B-RAF/C-RAF dimerization (Homo sapiens (Human), UniProt P15056); test: B-RAF/C-RAF dimerization in XPA-1 pancreatic cancer cells (immunoprecipitation/Western); type: cell-based; conditions: XPA-1 cells
[2] = biological target: MLK3 (Homo sapiens (Human), UniProt Q16584); test: KINOMEscan competitive binding assay; conditions: 10 uM
[3] = biological target: ABL1 (Homo sapiens (Human), UniProt P00519); test: KINOMEscan competitive binding assay; conditions: 10 uM
Experimental: (§1) For the competitive binding assay, test compounds were screened at 10 μM against 70 diverse kinase targets for competitive binding using the KINOMEscan™ technology (Ambit Biosciences) (Karaman, et al. (2008) Nature biotechnology 26:127-132). 11-point Kd curves were determined for hits identified during the initial screen.

[4] = biological target: CSF1R (Homo sapiens (Human), UniProt P07333); test: KINOMEscan competitive binding assay; conditions: 10 uM
Experimental: as §1

[5] = biological target: PRKCE (Homo sapiens (Human), UniProt Q02156); test: KINOMEscan competitive binding assay; conditions: 10 uM
[6] = test system: 1205 Lu melanoma cells; test: 1205 Lu melanoma subcutaneous xenograft; type: in vivo, mice; conditions: 50 mg/kg, bid, ip for 2 weeks
Experimental: Human 1205 Lu melanoma cells, which express BRAF V600E, were subcutaneously implanted into the flank of 6-8 week old female Nu/Nu mice. The tumor cells were trypsinized and resuspendend in 1:1 PBS:growth factor depeleted Matrigel (BD Biosciences) and […] containing 1×10^6 cells was injected into the flank. An excess of mice bearing tumors were utilized and groups of 6 animals were chosen based on the symmetry of the tumor and randomized to give each group an average of 50 mm^3 (day 10). […] The vehicle was 10% HS-15 (known as Solutol, BASF, Inc.) in 3.33% dextrose. Tumor growth was monitored by measuring the tumor length and width with precision calipers every 3 days and calculating tumor volume using the following formula: Tumor volume=0.5*(length)*(width)^2, provided the smaller measurement was utilized as the length.

CSc1nc(N)cc(Oc2ccc(-c3nnc(Nc4cccc(C(F)(F)F)c4)[nH]3)cc2)n1 [Compound 6]
RAF dimerization and pS338-CRAF [1]: prevent RAF dimerization and pS338-CRAF | % Control [2]: 96% | % Control [3]: 100% | % Control [4]: 51% | % Control [5]: 91% | melanoma tumor growth [6]: suppresses melanoma tumor growth in vivo
